Marks after values point to notes of the source that are not given here.
Molecular target: T1, BT_2972 (Bacteroides thetaiotaomicron, UniProt Q8A3I2)
T1 construct: 257 amino acids with noncleavable N-terminal (His)6 tag; pGS21a, E. coli BL21 (DE3); monomer in solution; first 12 residues disordered
Assay: isothermal titration calorimetry
Assay type: binding
Details: 20 mM Tris-HCl pH 8.0, 200 mM NaCl, 24 °C; single-site model

T1 sequence (Q8A3I2 entry or part of it, change not shown): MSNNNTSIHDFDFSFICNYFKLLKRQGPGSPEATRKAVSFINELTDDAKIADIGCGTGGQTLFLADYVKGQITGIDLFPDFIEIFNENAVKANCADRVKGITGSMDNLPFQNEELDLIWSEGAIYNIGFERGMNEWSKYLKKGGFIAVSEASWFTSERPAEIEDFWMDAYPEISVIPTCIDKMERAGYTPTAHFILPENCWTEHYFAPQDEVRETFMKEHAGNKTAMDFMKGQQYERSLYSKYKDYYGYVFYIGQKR

SMILES	Ka
Nc1ncnc2c1ncn2[C@@H]1O[C@H](CSCC[C@H](N)C(=O)O)[C@@H](O)[C@H]1O [AdoHcy]	3.498×10^5 (±0.66×10^5)
C[S+](CC[C@H](N)C(=O)O)C[C@H]1O[C@@H](n2cnc3c(N)ncnc32)[C@H](O)[C@@H]1O (some centres unmarked) [AdoMet]	0.395×10^5 (±0.0435×10^5)
